Test results from US8524899B2, “Alternative heterocycles for DNA recognition” (California Institute of Technology, priority 2003, dated 2013).

Assays:
[1] = test system: 32P-3′-labeled EcoRI/PvuII restriction fragment of plasmid pDR1 (sites 5′-TGTCTA-3′, 5′-TGTTTA-3′, 5′-TGTATA-3′, 5′-TGTGTA-3′); assay: Quantitative DNase I footprint titration on pDR1 restriction fragment; format: binding
Procedure: FIG. 4 illustrates the equilibrium association constants Ka[M^−1] for Polyamide Oligomers A-C, N, Q, and P. The reported association constants are the average values obtained from three DNase I footprint titration experiments, with the standard deviation for each data set indicated in the experiments. Assays were carried out at 22° C. at pH 7.0 in the presence of 10 mM Tris-HCl, 10 mM KCl, 10 mM MgCl2, and 5 mM CaCl2 with an equilibration time of 12 h. Specificities are give in brackets under the Ka values and calculated as Ka (match)/Ka (mismatch).
To examine whether an imidazo[4,5-b]pyridine unit Ip can replace a five-membered imidazole ring Im within an eight-ring hairpin polyamide regarding DNA binding affinity and specificity, polyamide oligomer A and its related all five-membered ring hairpin oligomer N were evaluated by DNase I footprint titrations under identical conditions. Quantitative DNase I footprint titration experiments (10 mM Tris-HCl, 10 mM KCl, 10 mM MgCl2, 5 mM CaCl2, pH 7.0, 22° C., equilibration time: 12 h) were performed on a ^32P-3′-labeled EcoRI/PvuII restriction fragment of plasmid pDR1 0 (FIG. 2). This DNA fragment contains four 6-base pair binding sites which differ at one position, 5′-TGTCTA-3′,5′-TGTTTA-3′,5′-TGTATA-3′, and 5′-TGTGTA-3′. The latter one was regarded as the possible match site having a G•C base pair under the Ip/Py or Im/Py pair, respectively.
Construction of plasmid DNA. The plasmid pDR1 was constructed by hybridization of the two oligonucleotides 5′-GATCAGGCTGTC-[…]-GCTGCTGTTTATGGACG-GCTGCTGTATATGGACGG-CTGGGCGA-3′ (SEQ ID NO:1) and 5′-AGCTTCGC-[…]-[…]-3′ (SEQ ID NO:2) followed by ligation into the BamHI/HinDIII restriction fragment of pUC19 using T4 DNA ligase. The resultant plasmid was then used to transform E. coli XL-1 Blue Supercompetent cells. Ampicillin-resistant white colonies were selected from 25 mL Luria-Bertani agar plates containing […] ampicillin, treated with XGAL and IPTG solutions and grown overnight at 37° C. Cells were harvested after overnight growth at 37° C. Large-scale plasmid purification was performed with Qiagen, purification kits. The presence of the desired insert was determined by dideoxy sequencing. DNA concentrations were determined at 260 nm using the relationship 1 OD unit) 50 μg/mL duplex DNA.
Preparation of 3′-End-Labeled DNA Restriction Fragments. The plasmid pDR1 was linearized with EcoRI and PVuII and treated with the Klenow fragment of DNA […], [R-^32P]-dATP, and [R-^32P]-TTP for 3′-end labeling. The labeled 3′-fragment was purified on a 7% nondenaturing polyacrylamide gel (5% cross-linkage) and the desired 284 base pair band isolated after visualization by autoradiography. The DNA was precipitated with 2-propanol, the pellet washed, lyophilized, and resuspended in RNase-free H2O. Chemical sequencing reactions were performed according to published protocols. (Troschütz, R.; Lückel, A. Arch. Pharm., 325, 617-619, 1992.)
DNase I Footprinting. All reactions were carried out in a volume of 400 μL according to published procedures. Quantitation by storage phosphor autoradiography and determination of equilibrium association constants were as previously described. (Trauger, J. W.; Dervan, P. B. Methods Enzymol., 340, 450-466, 2001.)

Stability at acidic pH = format: physicochemical
[2] = test system: EcoRI/PvuII restriction fragment of plasmid pAU2 (5′-TGGXCA-3′); assay: Quantitative DNase I footprint titration, X•Y position, plasmid pAU2; format: binding; conditions: match and mismatch sites
From the text: FIG. 10 illustrates the equilibrium association constants Ka[M^−1] and specificities for polyamide oligomers D-F, R, S, and V on plasmids pAU2 and pCAB2 (X•Y position). […]
Evaluation of the DNA recognition properties of the new ligands oligomers D, E, and F at the imidazole/benzimidazole position (referred to as R•S position) should reveal the sequence preference of the benzimidazole ring. […] To examine the consequences of the ring replacement for DNA binding in terms of affinity and specificity, the benzimidazole-containing hairpin polyamides oligomers D, E, and F were evaluated by quantitative DNase I footprint titrations and the results compared to those from related oligomers R, S, and V, which were investigated under identical conditions. Quantitative DNase I footprint titration experiments (10 mm Tris-HCl, 10 mm KCl, 10 mm MgCl2, 5 mm CaCl2, pH 7.0, 22° C., equilibration time: 12 h) were performed on ^32P-3′-labeled EcoRI/PvuII restriction fragments of plasmids pPWF2 and pCAB1 (to probe the R•S position, FIG. 7); and pAU2 and pCAB2 (to probe the X•Y position, FIG. 8). Equilibrium association constants (Ka) for the polyamide oligomers at the binding sites of interest were determined as described above in Example 3.

[3] = test system: EcoRI/PvuII restriction fragment of plasmid pPWF2 (5′-TGRACA-3′); assay: Quantitative DNase I footprint titration, R•S position, plasmid pPWF2; format: binding
From the text: FIG. 9 illustrates the equilibrium association constants Ka[M^−1] and specificities for polyamide oligomers D-F, R, S, and V on plasmids pPWF2 and pCAB1 (R•S position).
When replacing PyPy, PyIm, and PyHp dimers with BiPy (as in oligomer D), BiIm (as in oligomer E), and BiHp constructs (as in oligomer F), respectively, the question arises whether a) the benzimidazole ring is capable of cooperating with the imidazole ring on the opposite strand of the hairpin polyamide to specifically recognize a C•G base pair according to the binding model and the general pairing rules, and b) whether the steric and electronic peculiarities of the benzimidazole ring disturb the binding ability of the adjacent heterocycle. In order to address this question for the given polyamide design, the recognition behavior of the benzimidazole-containing polyamides was probed in two of the six base pair positions R•S and X•Y of the recognition sequence (5′-TGRACA-3′ and 5′-TGGXCA-3′ for oligomers D and F; 5′-TGRCAA-3′ and 5′-TGGXAA-3′ for oligomer E; FIG. 6) and compared with the DNA-binding ability of the related all five-membered oligomers R, S, and V at the same recognition sequences.
Evaluation of the DNA recognition properties of the new ligands oligomers D, E, and F at the imidazole/benzimidazole position (referred to as R•S position) should reveal the sequence preference of the benzimidazole ring. The binding properties at the neighboring ring position (referred to as X•Y position) were expected to disclose whether the recognition capabilities of the adjacent internal five-membered ring are disturbed by the benzimidazole moiety. To examine the consequences of the ring replacement for DNA binding in terms of affinity and specificity, the benzimidazole-containing hairpin polyamides oligomers D, E, and F were evaluated by quantitative DNase I footprint titrations and the results compared to those from related oligomers R, S, and V, which were investigated under identical conditions. Quantitative DNase I footprint titration experiments (10 mm Tris-HCl, 10 mm KCl, 10 mm MgCl2, 5 mm CaCl2, pH 7.0, 22° C., equilibration time: 12 h) were performed on ^32P-3′-labeled EcoRI/PvuII restriction fragments of plasmids pPWF2 and pCAB1 (to probe the R•S position, FIG. 7); and pAU2 and pCAB2 (to probe the X•Y position, FIG. 8). Equilibrium association constants (Ka) for the polyamide oligomers at the binding sites of interest were determined as described above in Example 3.

5′-AGWWCT-3′ (W=A, T) = assay: DNase I footprint titration, multiple Hz/Py pairs; format: binding
Procedure: FIG. 17 is a table showing the association equilibrium constant Ka[M^−1] for polyamide oligomers H and K. The reported association constants are the average values obtained from three DNase I footprint titration experiments, with the standard deviation given in parenthesis. Assays were carried out at 22° C. at pH 7.0 in the presence of 10 mM Tris-HCl, 10 mM KCl, 10 mM MgCl2, and 5 mM CaCl2 at pH 7.0.
For polyamides Im-Hz-Py-Py-γ-Im-Hz-Py-Py-β-Dp (oligomer H) and Im-Py-Hz-Py-γ-Im-Py-Hz-Py-β-Dp (oligomer K) the ability of multiple Hz/Py pairs to distinguish poly A,T sequences was tested by varying two DNA base pairs across from the Hz/Py and Py/Hz pairs (bolded in the sequences listed above) within the parent-sequence context, 5′-AGWWCT-3′, (W=A, T) and comparing the relative affinities of the resulting complexes (FIG. 16). Equilibrium association constants (Ka) for polyamide oligomers containing multiple Hp/Py pairs have been reported and are included for comparison with values presented here (FIG. 17). […] The recognition profiles of polyamide oligomers containing multiple Hz/Py pairs (oligomers H and K) are similar to those reported for multiple Hp/Py pairs.
Footprinting Experiments.—Plasmids pDHN1 and pDEH10 were constructed and 5′-radiolabeled as previously described. […]

Compound: CNC(=O)c1cc(NC(=O)c2cc(NC(=O)c3cc(NC(=O)c4cc(NC(=O)[C@H](N)CCNC(=O)c5cc(NC(=O)c6ccc7nc(-c8cc(NC(=O)c9nccn9C)cn8C)[nH]c7c6O)cn5C)cn4C)cn3C)cn2C)cn1C [B]
- selectivity of T•A over A•T ([1]; 5′-TGTTTA-3′ vs A•T site): 18 fold
- binding at C•G site ([1]; C•G site (5′-TGTCTA-3′), for Q concentration range up to 200 nM): No binding was observed
- lower affinity at G•C mismatch site 5′-TGTGTA-3′ ([1]; relative to match site 5′-TGTTTA-3′): at least 80 fold
- equilibrium association constant Ka ([1]; site 5′-TGTTTA-3′ (T•A), pH 7.0, 22° C., equilibration 12 h): 5.7e+08 M⁻¹
- stability at acidic pH (Stability at acidic pH): stable

Compound: CNC(=O)c1cc(NC(=O)c2ccc3nc(-c4c(O)c(NC(=O)c5nc(NC(=O)[C@H](N)CCNC(=O)c6cc(NC(=O)c7cc(NC(=O)c8nc(NC(=O)c9nccn9C)cn8C)cn7C)cn6C)cn5C)cn4C)[nH]c3c2)cn1C [F]
- binding affinities and specificities compared with related oligomers R, V, X•Y position [2]: same order of magnitude
- match site Ka, R•S position ([3]; 5′-TGRACA-3′ match site, pH 7.0, 22° C., 12 h): 2.5e+10 M⁻¹
- match site affinity compared with related all five-membered oligomer, R•S position ([3]; D vs R, F vs V): six to seven-fold higher
- single base pair mismatch specificities compared with related oligomer, R•S position ([3]; D vs R, F vs V): comparable

Compound: CN(C)CCCNC(=O)CCNC(=O)c1cc(NC(=O)c2cc(NC(=O)c3ccc4nc(-c5nc(NC(=O)CCCNC(=O)c6cc(NC(=O)c7cc(NC(=O)c8ccc9nc(-c%10nccn%10C)[nH]c9c8O)cn7C)cn6C)cn5C)[nH]c4c3O)cn2C)cn1C [H]
- specificity for match sequence 5′-AGTACT-3′ over 5′-AGAACT-3′ and 5′-AGATCT-3′ (5′-AGWWCT-3′ (W=A, T)): greater than 14 fold

Compound: CN(C)CCCNC(=O)CCNC(=O)c1cc(NC(=O)c2ccc3nc(-c4cc(NC(=O)c5nc(NC(=O)CCCNC(=O)c6cc(NC(=O)c7ccc8nc(-c9cc(NC(=O)c%10nccn%10C)cn9C)[nH]c8c7O)cn6C)cn5C)cn4C)[nH]c3c2O)cn1C [K]
- specificity for match sequence 5′-AGTACT-3′ over 5′-AGAACT-3′ and 5′-AGATCT-3′ (5′-AGWWCT-3′ (W=A, T)): poor site selectivity
